Measured values taken from paper PMC8187775, “Metabolism and Tissue Distribution of Chelerythrine and Effects of Macleaya Cordata Extracts on Liver NAD(P)H Quinone Oxidoreductase” (Frontiers in Veterinary Science, 2021).
Each block holds one molecule with its values, some of them ahead of it.

Legend:
[1] = tested on: rat liver cytosol; assay: Effect of inhibitors on chelerythrine iminium bond reduction to DHCHE by rat liver cytosol; type: in vitro ADME; details: 100 μmol/L inhibitor, 0.25 mg/mL cytosol protein, 2 mM NADPH, 10 μg/mL chelerythrine, 15 min
Protocol: In brief, the incubation mixture consisted of 0.25 mg/mL cytosol protein, 5 mM MgCl2, 100 μmol/L inhibitor, and 2 mM NADPH in 0.05 M Tris-HCl buffer (pH 7.4). The inhibitors were dicoumarol (quinone oxidoreductase 1), quercetin (quinone oxidoreductase 2, carbonyl reductase), menadione (aldehyde oxidase, carbonyl reductase), and 7-hydroxycoumarin (xanthine oxidase). The reaction was preincubated at 37°C for 5 min. […] The incubation mixtures without the inhibitor or cytosol protein acted as the blank control. The reaction was stopped by adding 200 μL ice-cold acetonitrile after 15 min, and the mixture was vortexed and centrifuged at 12,000 g for 15 min. […] Phenomenex Co. USA). The mobile phase consisted of a 30/70 (v/v) mixture of solvent A (0.2% aqueous acetic acid solution) and solvent B (acetonitrile). The injection dose was 10 μl and the flow rate was 1 mL/min. The column temperature was set to 35°C and the detection wavelength was set to 285 nm. The DHCHE standard curve varied linearly in the concentration range from 0.050 to 10 μg/mL. […] The lower limit of quantification was 0.050 μg/mL.

[2] = Metabolite profile of chelerythrine in plasma, urine and feces of rats after intragastric chelerythrine (HPLC/QqTOF-MS)
Protocol: Ten SD rats (160–180 g, five males and five females) were individually placed in stainless steel metabolic cages. […] Chelerythrine in water with the dissolving aid of Tween-80 was intragastrically administered to rats at a dose of 10 mg/kg. One milliliter whole blood samples were collected from retro orbital sinus with a heparinized blood collection tube at 3 h following drug dosing. Each collected blood sample was centrifuged at 3,000 rpm at 4°C for 10 min to obtain plasma samples. […] All samples were collected from female and male rats and stored at −70°C.
(§1) The preparations of plasma, urine, feces, and tissues were pretreatments according to our current study ([19]).
(§2) The injection volume was 5 μL.
Nitrogen was used as atomization gas, and the flow rate was 9 L/min. The parameters of the mass spectrometer were as follows: nozzle voltage 1 kv, capillary voltage 4.0 kv, sheath gas temperature 350°C, sheath gas flow rate 11 L/min, nebulizer voltage 35 psig. The quarantine window was set at 1 amu. The instrument automatically performed the internal mass calibration though the automated calibrate transfer system. […] All the data acquisition was controlled by Agilent Mass Hunter software (version B.01.03 Build 1.3.157.0 2), and the Agilent Mass Hunter software (Qualitative Analysis B.04.0) was used to accurately take mass measurements of each peak from the total ion chromatograms. Then, these metabolites were subjected to accurate EIC, and the acceptance or rejection was decided according to the peak appearing in the EIC. Structural elucidations of chelerythrine metabolites were carried out on the basis of the mass change from the metabolite or parent drug, the predicted elemental compositions, and the interpretation of accurate MS/MS spectra.

[3] = Chelerythrine/sanguinarine and metabolites in rat tissues after 3 weeks of intragastric M. cordata extracts (HPLC/QqTOF-MS); type: in vivo
Protocol: Tissue samples including cecal contents, lung, heart, liver, kidney, and spleen were collected at 24 and 48 h after the last administration and stored at −70°C.
as §2
The quarantine window was set at 1 amu.

[4] = in vivo
Protocol: Tissue distribution was carried out in eighteen SD rats (160–180 g, nine males and nine females). Twelve rats (six male and six female) were intragastrically administered with M. cordata extracts at a single dosage of 5 mg/kg (containing about 2 mg/kg dose of sanguinarine and 1 mg/kg dose of chelerythrine) in water with the dissolving aid of Tween-80 for 3 weeks. Three male and three female rats were given the same amount of water as the blank control group by intragastric administration.
as §1
The controls of the operating parameters were as follows: capillary voltage, 3,500 V; EM voltage, 200 V; dry gas (N2) flow rate, 12 L/min; ion source temperature, 350°C; nebulizer, 25 psi.
The proposed method was validated by evaluation of specificity, accuracy, precision, LOD, and LOQ.

[5] = target: T1, NAD(P)H quinone oxidoreductase (NQO1) (Rattus norvegicus, UniProt P05982); assay: In vitro inhibition of rat cytosolic NQO1 activity (DCPIP reduction); type: biochemical; details: for NQO1 activities: compound 40.00 μM, control 67.14 ± 4.82; for NQO1 activities / Effect on NQO1 activity: rat liver cytosol; for Effect on NQO1 activity: in vitro
T1 construct: 50 μg/mL rat liver cytosol; from tissue; host or cells: rat liver cytosol
T1 sequence (P05982 2-274 limits assumed): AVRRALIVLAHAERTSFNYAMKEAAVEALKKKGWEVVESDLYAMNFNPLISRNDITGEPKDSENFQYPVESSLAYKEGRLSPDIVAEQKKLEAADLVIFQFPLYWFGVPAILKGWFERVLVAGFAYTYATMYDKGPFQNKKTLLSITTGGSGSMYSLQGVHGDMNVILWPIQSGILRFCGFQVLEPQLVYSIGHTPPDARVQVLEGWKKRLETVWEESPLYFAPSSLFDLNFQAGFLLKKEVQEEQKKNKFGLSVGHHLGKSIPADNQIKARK
Protocol: Any change in absorbance was monitored at 620 nm, and NQO1 activity was calculated by using the extinction coefficient for DCPIP (ε = 21 mM^−1cm^−1) and expressed as nanomles of DCPIP reduced per minute per milligram of protein.
The inhibitory effects of sanguinarine and chelerythrine were determined by the incubation of the reaction mixture with or without substrate. […] All of the incubations and sample preparations were carried out as described for the NQO1 assay above.

[6] = parameters: method as in none printed; details: no species, dose or reference given; cited from earlier work
[7] = Metabolite profile of sanguinarine in plasma, urine and feces of rats after intragastric M. cordata extracts; type: in vivo, rat

SMILES: O=c1ccc2ccc(O)cc2o1 [7-hydroxycoumarin]
- Effect on iminium bond reduction of chelerythrine (DHCHE formation) in rat liver cytosol [1]: could inhibit

SMILES: COc1ccc2c(c[n+](C)c3c4cc5c(cc4ccc23)OCO5)c1OC [Chelerythrine]
- Detection in plasma ([2]; male and female rats, three hours after intragastric chelerythrine): no parent drug and metabolites were detected
- Found in spleen, lung, kidney, liver or heart by HPLC/QqTOF-MS [3]: no sanguinarine and chelerythrine or their metabolites were found
- Concentrations in (others) tissues ([4]; both, SD, rat, in vivo): < 15 ng/g
- concentration at 24 h ([4]; both, SD, rat, in vivo, Concentration in spleen): 44 ng/mL
- concentration at 48 h ([4]; both, SD, rat, in vivo, Concentration in the liver): 20.6 ng/mL
- NQO1 activities [5]: 64.90 ± 4.24 nanomolars of 2,6-dichlorophenolindophenol reduced per minute per milligram of protein
- Effect on NQO1 activity [5]: weak impact
- Cmax [6]: 5.06 ng/mL
- T1/2 [6]: 2.82 h
- Tmax [6]: 1.67 h

- Found in feces ([2]; rat, in vivo): found
- Observed in feces ([2]; rat, in vivo): observed
SMILES: COc1ccc2c(c1OC)CN(C)c1c-2ccc2cc3c(cc12)OCO3 [DHCHE, dihydrochelerythrine]

SMILES: O=c1oc2ccccc2c(O)c1Cc1c(O)c2ccccc2oc1=O [Dicoumarol, dicoumarol]
- Effect on iminium bond reduction of chelerythrine (DHCHE formation) in rat liver cytosol [1]: could inhibit

SMILES: CN1Cc2c(ccc3c2OCO3)-c2ccc3cc4c(cc3c21)OCO4 [Metabolite S1, dihydrosanguinarine]
- Observed in rats in vivo (feces 0–24 h) ([7]; 5 mg/kg M. cordata extracts intragastric): observed

SMILES: C[n+]1cc2c3c(ccc2c2ccc4cc5c(cc4c21)OCO5)OCO3 [Sanguinarine]
- Found in spleen, lung, kidney, liver or heart by HPLC/QqTOF-MS [3]: no sanguinarine and chelerythrine or their metabolites were found
- concentration at 24 h ([4]; both, SD, rat, in vivo, 5 mg/kg, Residue in heart, 24 h after last dose, M. cordata extracts 5 mg/kg intragastric for 3 weeks): 2.91 ng/g
- concentration at 48 h ([4]; both, SD, rat, in vivo, 5 mg/kg, Residue in heart, 48 h after last dose, M. cordata extracts 5 mg/kg intragastric for 3 weeks): 2.57 ng/g
- concentration at 24 h ([4]; both, SD, rat, in vivo, 5 mg/kg, Residue in kidney, 24 h after last dose, M. cordata extracts 5 mg/kg intragastric for 3 weeks): 3.77 ng/g
- concentration at 48 h ([4]; both, SD, rat, in vivo, 5 mg/kg, Residue in kidney, 48 h after last dose, M. cordata extracts 5 mg/kg intragastric for 3 weeks): 5.65 ng/g
- concentration at 24 h ([4]; both, SD, rat, in vivo, 5 mg/kg, Residue in liver, 24 h after last dose, M. cordata extracts 5 mg/kg intragastric for 3 weeks): 10.4 ng/g
- concentration at 48 h ([4]; both, SD, rat, in vivo, 5 mg/kg, Residue in liver, 48 h after last dose, M. cordata extracts 5 mg/kg intragastric for 3 weeks): 9.8 ng/g
- concentration at 24 h ([4]; both, SD, rat, in vivo, 5 mg/kg, Residue in lung, 24 h after last dose, M. cordata extracts 5 mg/kg intragastric for 3 weeks): 2.29 ng/g
- concentration at 48 h ([4]; both, SD, rat, in vivo, 5 mg/kg, Residue in lung, 48 h after last dose, M. cordata extracts 5 mg/kg intragastric for 3 weeks): 2.01 ng/g
- concentration at 24 h ([4]; both, SD, rat, in vivo, 5 mg/kg, Residue in spleen, 24 h after last dose, M. cordata extracts 5 mg/kg intragastric for 3 weeks): 2.01 ng/g
- concentration at 48 h ([4]; both, SD, rat, in vivo, 5 mg/kg, Residue in spleen, 48 h after last dose, M. cordata extracts 5 mg/kg intragastric for 3 weeks): 1.91 ng/g
- Concentrations in other tissues ([4]; tissues other than chelerythrine in liver 48 h and spleen 24 h): < 11 ng/g
- NQO1 activities [5]: 45.08 ± 4.34 nanomolars of 2,6-dichlorophenolindophenol reduced per minute per milligram of protein
- IC50 ([5]; rat liver cytosol 50 μg/mL, 40 μM DCPIP, 0.2 mM NADH, 0–40 μM compound): 112 ± 6.17 µM
- Effect on NQO1 activity [5]: statistically significant decline
- Observed in plasma at 3 h and urine of 0–24 h ([7]; rats, after intragastric M. cordata extracts): No parent drug or metabolites were observed

SMILES: CC1=CC(=O)c2ccccc2C1=O [menadione]
- Effect on iminium bond reduction of chelerythrine (DHCHE formation) in rat liver cytosol [1]: could inhibit

SMILES: O=c1c(O)c(-c2ccc(O)c(O)c2)oc2cc(O)cc(O)c12 [quercetin]
- Effect on iminium bond reduction of chelerythrine (DHCHE formation) in rat liver cytosol [1]: could inhibit
